Patent US8404692B2, “Pyrimidin-4-yl-3, 4-dihydro-2H-pyrrolo [1,2A] pyrazin-1-one compounds” (Cyclacel Limited, priority 2005, dated 2013)

What follows are compounds tested against T1, aurora-A (human) (Homo sapiens, UniProt O14965) (assay: Aurora-A (human) kinase assay). Conditions: read-out: Activity (Aurora A activity, IC50 grading).
T1 construct: purchased Upstate, Dundee, UK
T1 sequence (O14965 1-403): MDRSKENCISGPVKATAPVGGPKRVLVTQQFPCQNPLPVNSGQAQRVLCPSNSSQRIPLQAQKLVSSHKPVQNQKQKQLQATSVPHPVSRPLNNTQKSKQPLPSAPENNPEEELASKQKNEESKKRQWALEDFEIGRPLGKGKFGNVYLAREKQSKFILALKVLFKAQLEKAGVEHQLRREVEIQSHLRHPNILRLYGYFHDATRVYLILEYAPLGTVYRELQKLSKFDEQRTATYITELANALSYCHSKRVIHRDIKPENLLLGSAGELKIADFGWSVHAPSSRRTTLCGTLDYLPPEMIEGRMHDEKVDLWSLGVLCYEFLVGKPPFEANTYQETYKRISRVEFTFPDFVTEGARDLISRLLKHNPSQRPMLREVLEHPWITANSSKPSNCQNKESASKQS
Assay type: biochemical
Description: This was achieved by measurement of incorporation of radioactive phosphate from ATP into Kemptide substrate (LRRASLG), upon phosphorylation by commercially obtained aurora-A (human, Upstate; Dundee, UK). Assays were performed using 96-well plates and appropriate assay buffers (20 mM Tris, 25 mM β-glycerophosphate, 5 mM EGTA, 1 mM DTT, 1 mM sodium vanadate, pH 7.5), into which were added 2-5 ng of active enzyme with 500 μM substrate (Kemptide). The reactions were initiated by addition of MATP mix (15 mM MgCl2+100 μM ATP with 15-25 kBq per well of [γ-^32P]-ATP) and mixtures incubated for 30 min at 30° C. Reactions were stopped by addition of an equal volume of 75 mM aq orthophosphoric acid, followed by filtration through p81 filterplates (Whatman Polyfiltronics, Kent, UK). After washing 4 times with 75 mM aq orthophosphoric acid, plates were dried, scintillant added and incorporated radioactivity measured in a scintillation counter (TopCount, Packard Instruments, Pangbourne, Berks, UK). Compounds for kinase assay were made up as 10 mM stocks in DMSO and diluted into 10% DMSO in assay buffer. Data was analysed using curve-fitting software (XLfit version 4.0.2, IDBS, Guildford, Surrey, UK) to determine IC50 values (concentration of test compound which inhibits kinase activity by 50%).
`Cc1c(-c2ccnc(Nc3ccc(S(=O)(=O)N4CCCCC4)cc3)n2)c(C)n2c1C(=O)NCC2` [Example I-56, 6,8-Dimethyl-7-{2-[4-(piperidine-1-sulfonyl)-phenylamino]-pyrimidin-4-yl}-dihydro-2H-pyrrolo[1,2-a]pyrazin-1-one] showed an IC50 of under 0.1 µM. With `Cc1c(-c2ccnc(Nc3ccc(OCc4ccccc4)cc3)n2)c(C)n2c1C(=O)NCC2` [Example I-57, 7-[2-(4-Benzyloxy-phenylamino)-pyrimidin-4-yl]-6,8-dimethyl-3,4-dihydro-2H-pyrrolo[1,2-a]pyrazin-1-one] the IC50 was under 10 µM. `Cc1c(-c2ccnc(Nc3cccc(C(=O)c4ccccc4)c3)n2)c(C)n2c1C(=O)NCC2` [Example I-58, 7-[2-(3-Benzoyl-phenylamino)-pyrimidin-4-yl]-6,8-dimethyl-3,4-dihydro-2H-pyrrolo[1,2-a]pyrazin-1-one] was tested, and the IC50 was under 1 µM. `CC(=O)Nc1cccc(Nc2nccc(-c3c(C)c4n(c3C)CCNC4=O)n2)c1` [Example I-59, N-{3-[4-(6,8-Dimethyl-1-oxo-1,2,3,4-tetrahydro-pyrrolo[1,2-a]pyrazin-7-yl)-pyrimidin-2-ylamino]-phenyl}-acetamide] was tested, and the IC50 was under 0.1 µM. With `Cc1c(-c2ccnc(Nc3ccc(-c4csnn4)cc3)n2)c(C)n2c1C(=O)NCC2` [Example I-60, 6,8-Dimethyl-7-[2-(4-[1,2,3]thiadiazol-4-yl-phenylamino)-pyrimidin-4-yl]-3,4-dihydro-2H-pyrrolo[1,2-a]pyrazin-1-one] the IC50 was under 0.1 µM. `Cc1c(-c2ccnc(Nc3ccc(OC(F)(F)F)cc3)n2)c(C)n2c1C(=O)NCC2` [Example I-61, 6,8-Dimethyl-7-[2-(4-trifluoromethoxy-phenylamino)pyrimidin-4-yl]-3,4-dihydro-2H-pyrrolo[1,2-a]pyrazin-1-one] gave an IC50 of under 1 µM. `Cc1c(-c2ccnc(Nc3ccc4c(c3)OCCCO4)n2)c(C)n2c1C(=O)NCC2` [Example I-62, 7-[2-(3,4-Dihydro-2H-benzo[b][1,4]dioxepin-7-ylamino)-pyrimidin-4-yl]-6,8-dimethyl-3,4-dihydro-2H-pyrrolo[1,2-a]pyrazin-1-one] was tested, and the IC50 was under 0.1 µM. Work on `Cc1c(-c2ccnc(Nc3ccc4c(c3)CS(=O)(=O)C4)n2)c(C)n2c1C(=O)NCC2` [Example I-63, 7-[2-(2,2-Dioxo-2,3-dihydro-1H-2-benzo[c]thiophen-5-ylamino)-pyrimidin-4-yl]-6,8-dimethyl-3,4-dihydro-2H-pyrrolo[1,2-a]pyrazin-1-one] yielded an IC50 of under 0.1 µM. `Cc1c(-c2ccnc(Nc3ccc(F)c(Cl)c3)n2)c(C)n2c1C(=O)NCC2` [Example I-64, 7-[2-(3-Chloro-4-fluoro-phenylamino)-pyrimidin-4-yl]-6,8-dimethyl-3,4-dihydro-2H-pyrrolo[1,2-a]pyrazin-1-one] gave an IC50 of under 1 µM. For `Cc1c(-c2ccnc(Nc3ccccc3F)n2)c(C)n2c1C(=O)NCC2` [Example I-65, 7-[2-(2-Fluoro-phenylamino)-pyrimidin-4-yl]-6,8-dimethyl-3,4-dihydro-2H-pyrrolo[1,2-a]pyrazin-1-one], the IC50 was under 1 µM. Compound `Cc1c(-c2ccnc(Nc3ccc(F)cc3F)n2)c(C)n2c1C(=O)NCC2` [Example I-66, 7-[2-(2,4-Difluoro-phenylamino)-pyrimidin-4-yl]-6,8-dimethyl-3,4-dihydro-2H-pyrrolo[1,2-a]pyrazin-1-one] has an IC50 of under 10 µM. For `COc1ccc(Nc2nccc(-c3c(C)c4n(c3C)CCNC4=O)n2)cc1Cl` [Example I-67, 7-[2-(3-Chloro-4-methoxy-phenylamino)-pyrimidin-4-yl]-6,8-dimethyl-3,4-dihydro-2H-pyrrolo[1,2-a]pyrazin-1-one], the IC50 was under 0.1 µM. `Cc1c(-c2ccnc(Nc3ccc(C(F)(F)F)cc3)n2)c(C)n2c1C(=O)NCC2` [Example I-68, 6,8-Dimethyl-7-[2-(4-trifluoromethyl-phenylamino)-pyrimidin-4-yl]-3,4-dihydro-2H-pyrrolo[1,2-a]pyrazin-1-one] gave an IC50 of under 10 µM. `Cc1c(-c2ccnc(Nc3cccc(Cl)c3)n2)c(C)n2c1C(=O)NCC2` [Example I-69, 7-[2-(3-Chloro-phenylamino)-pyrimidin-4-yl]-6,8-dimethyl-3,4-dihydro-2H-pyrrolo[1,2-a]pyrazin-1-one] was tested, and the IC50 was under 1 µM. Work on `Cc1c(-c2ccnc(Nc3ccc(CC(=O)O)cc3)n2)c(C)n2c1C(=O)NCC2` [Example I-70, {4-[4-(6,8-dimethyl-1-oxo-1,2,3,4-tetrahydro-pyrrolo[1,2-a]pyrazin-7-yl)-pyrimidin-2-ylamino]-phenyl}-acetic acid] yielded an IC50 of under 0.1 µM. Work on `Cc1nc(-c2ccc(Nc3nccc(-c4c(C)c5n(c4C)CCNC5=O)n3)cc2)cs1` [Example I-71, 6,8-Dimethyl-7-{2-[4-(2-methyl-thiazol-4-yl)-phenylamino]-pyrimidin-4-yl}-3,4-dihydro-2H-pyrrolo[1,2-a]pyrazin-1-one] yielded an IC50 of under 1 µM. Compound `Cc1c(-c2ccnc(Nc3ccc(-n4cccn4)cc3)n2)c(C)n2c1C(=O)NCC2` [Example I-72, 6,8-Dimethyl-7-[2-(4-pyrazol-1-yl-phenylamino)-pyrimidin-4-yl]-3,4-dihydro-2H-pyrrolo[1,2-a]pyrazin-1-one] has an IC50 of under 1 µM. Work on `Cc1c(-c2ccnc(Nc3ccc(-n4cncn4)cc3)n2)c(C)n2c1C(=O)NCC2` [Example I-73, 6,8-Dimethyl-7-[2-(4-[1,2,4]triazol-1-yl-phenylamino)-pyrimidin-4-yl]-3,4-dihydro-2H-pyrrolo[1,2-a]pyrazin-1-one] yielded an IC50 of under 1 µM. For `Cc1c(-c2ccnc(Nc3ccc(-n4cccc4)cc3)n2)c(C)n2c1C(=O)NCC2` [Example I-74, 6,8-Dimethyl-7-[2-(4-pyrrol-1-yl-phenylamino)-pyrimidin-4-yl]-3,4-dihydro-2H-pyrrolo[1,2-a]pyrazin-1-one], the IC50 was under 1 µM. With `Cc1c(-c2ccnc(Nc3ccc(-c4cn5c(n4)SCC5)cc3)n2)c(C)n2c1C(=O)NCC2` [Example I-75, 7-{2-[4-(2,3-Dihydro-imidazo[2,1-b]thiazol-6-yl)-phenylamino]-pyrimidin-4-yl}-6,8-dimethyl-3,4-dihydro-2H-pyrrolo[1,2-a]pyrazin-1-one] the IC50 was under 0.1 µM. In the case of `CNc1ccc(Nc2nccc(-c3c(C)c4n(c3C)CCNC4=O)n2)cc1OC` [Example I-76, 7-[2-(3-Methoxy-4-methylamino-phenylamino)-pyrimidin-4-yl]-6,8-dimethyl-3,4-dihydro-2H-pyrrolo[1,2-a]pyrazin-1-one], the IC50 is reported as under 1 µM. Work on `Cc1c(-c2ccnc(Nc3ccc(C#N)cc3)n2)c(C)n2c1C(=O)NCC2` [Example I-77, 4-[4-(6,8-Dimethyl-1-oxo-1,2,3,4-tetrahydro-pyrrolo[1,2-a]pyrazin-7-yl)-pyrimidin-2-ylamino]-benzonitrile] yielded an IC50 of under 1 µM. Work on `Cc1c(-c2ccnc(Nc3ccc(-c4cccnc4)cc3)n2)c(C)n2c1C(=O)NCC2` [Example I-78, 6,8-Dimethyl-7-[2-(4-pyridin-3-yl-phenylamino)-pyrimidin-4-yl]-3,4-dihydro-2H-pyrrolo[1,2-a]pyrazin-1-one] yielded an IC50 of under 1 µM. Compound `Cc1c(-c2ccnc(Nc3ccc(-c4nncn4C)cc3)n2)c(C)n2c1C(=O)NCC2` [Example I-79, 6,8-Dimethyl-7-{2-[4-(4-methyl-4H-[1,2,4]triazol-3-yl)-phenylamino]-pyrimidin-4-yl}-3,4-dihydro-2H-pyrrolo[1,2-a]pyrazin-1-one] has an IC50 of under 1 µM. For `Cc1cc(C)n(-c2ccc(Nc3nccc(-c4c(C)c5n(c4C)CCNC5=O)n3)cc2)n1` [Example I-80, 7-{2-[4-(3,5-Dimethyl-pyrazol-1-yl)-phenylamino]-pyrimidin-4-yl}-6,8-dimethyl-3,4-dihydro-2H-pyrrolo[1,2-a]pyrazin-1-one], the IC50 was under 1 µM. `CCOC(=O)c1cnn(-c2ccc(Nc3nccc(-c4c(C)c5n(c4C)CCNC5=O)n3)cc2)c1C` [Example I-81, 1-{4-[4-(6,8-Dimethyl-1-oxo-1,2,3,4-tetrahydro-pyrrolo[1,2-a]pyrazin-7-yl)-pyrimidin-2-ylamino]-phenyl}-5-methyl-1H-pyrazole-4-carboxylic acid ethyl ester] was tested, and the IC50 was under 1 µM. Work on `Cc1c(-c2ccnc(Nc3ccc(-c4ccno4)cc3)n2)c(C)n2c1C(=O)NCC2` [Example I-82, 7-[2-(4-Isoxazol-5-yl-phenylamino)-pyrimidin-4-yl]-6,8-dimethyl-3,4-dihydro-2H-pyrrolo[1,2-a]pyrazin-1-one] yielded an IC50 of under 0.1 µM. `Cc1c(-c2ccnc(Nc3ccc(-c4csc(CC(N)=O)n4)cc3)n2)c(C)n2c1C(=O)NCC2` [Example I-83, 2-(4-{4-[4-(6,8-Dimethyl-1-oxo-1,2,3,4-tetrahydro-pyrrolo[1,2-a]pyrazin-7-yl)-pyrimidin-2-ylamino]-phenyl}-thiazol-2-yl)-acetamide] showed an IC50 of under 1 µM. For `Cc1c(-c2ccnc(Nc3ccc(-c4csc(CC#N)n4)cc3)n2)c(C)n2c1C(=O)NCC2` [Example I-84], the IC50 was under 1 µM.
